In brackets after ≈: the same amount, converted by molar mass.
Experiment: Drug solubility in coconut oil, CAOM and related dissolving agents
Assay type: physicochemical

COc1cc(/C=C/C(=O)CC(=O)/C=C/c2ccc(O)c(OC)c2)ccc1O [curcumin]
solubility of curcumin in CAOM relative to coconut oil (in CAOM versus coconut oil): 6 times
solubility at 2 days (oil or lipid, thermodynamic from solid, in coconut oil, room temperature, mean±SD n=3, read-out: solubility of curcumin in coconut oil): 2440 ± 240 µg/mL (≈ 6.62 mM)

Source: US20230106719A1, “DISSOLVING AGENT” (NATIONAL UNIVERSITY CORPORATION HOKKAIDO UNIVERSITY, priority 2020, published 2023)
